Test results as given in US11873298B2, “Compounds and uses thereof” (JANSSEN PHARMACEUTICA NV, priority 2017, dated 2024).
Values joined by “and” are separate entries in the source; they are usually repeats but may differ in a detail not shown here. Identical values can stand only once.

What was measured:
Type in all cases: cell-based
[1] = target: T1, Ole1 (Saccharomyces cerevisiae, UniProt P21147); assay: Growth inhibition of yeast strain expressing Ole1 as sole desaturase; details: yeast strain expressing Ole1 as sole desaturase
T1 construct: expressed in transfected cells; host or cells: S. cerevisiae ole1Δ strain (W303 pdr1Δ pdr3Δ background), plasmid pRS316 with TDH3 promoter and CYC1 terminator
T1 sequence (P21147 1-510): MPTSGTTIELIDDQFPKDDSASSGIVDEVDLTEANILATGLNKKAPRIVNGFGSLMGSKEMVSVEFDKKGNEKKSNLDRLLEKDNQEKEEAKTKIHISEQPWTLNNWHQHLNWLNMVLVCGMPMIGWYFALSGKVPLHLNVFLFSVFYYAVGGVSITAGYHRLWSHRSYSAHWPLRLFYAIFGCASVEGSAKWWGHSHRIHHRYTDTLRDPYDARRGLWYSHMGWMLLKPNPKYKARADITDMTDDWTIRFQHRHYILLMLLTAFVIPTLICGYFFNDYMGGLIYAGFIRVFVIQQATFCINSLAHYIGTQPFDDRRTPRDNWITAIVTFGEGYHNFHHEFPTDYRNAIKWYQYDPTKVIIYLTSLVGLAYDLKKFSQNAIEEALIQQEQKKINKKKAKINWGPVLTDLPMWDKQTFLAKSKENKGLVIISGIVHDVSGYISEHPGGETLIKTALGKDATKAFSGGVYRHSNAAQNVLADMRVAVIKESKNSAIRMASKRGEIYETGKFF
Method: Strain oleΔ (yeast ole1 deletion mutant) was constructed by deleting OLE1 with NAT-MX6 in BY4741, amplifying the deletion cassette from the genomic DNA of the resulting strain with primers flanking the ORF by 1000 bp upstream and downstream, transforming the resulting deletion cassette into W303 pdr1Δ pdr3Δ, and plating transformants on YPD media containing G418 (200 μg/mL) and nourseothricin ([…]) with 0.01% TWEEN®-20 and 0.5 mM oleic and palmitoleic acids.
The coding sequence of yeast OLE1 was also cloned into this plasmid). These clones were then transformed into the ole1Δ strain and plated on CSM-Ura media (CSM lacking uracil) with 2% glucose (w/v) and independent colonies were isolated and amplified.
All compound profiling experiments were performed using the same basic protocol. Different genetic backgrounds (e.g., gene deletions) or conditions (e.g., addition of oleic and palmitoleic acid) were replaced as indicated below.
Yeast were cultured using standard techniques in complete synthetic media (CSM) and yeast nitrogen base supplemented with 2% (w/v) carbon source (glucose, raffinose, or galactose) to regulate the expression of the toxic disease protein. An initial starter culture was inoculated in 3 mL CSM-Glucose media and incubated overnight in a 30° C. shaker incubator (225 rpm). Saturated morning cultures were then diluted 1:20 in fresh CSM-Raffinose media and grown for 6 h to an OD600 (optical density) of ˜0.4-0.8 at 30° C. with shaking.
Compound administration was performed in two separate steps. First, 15 μL of CSM-Galactose (induces expression of toxic protein) was dispensed into clear 384 well assay plates using a MULTIDROP™ Combi reagent dispenser. […] The cultures described above were then diluted to a 2× concentration (0.03 and 0.08 for alpha-synuclein and ApoE, final ODsoo of 0.015 and 0.04) in CSM-Galactose. For wild-type and Ole1/SCD1/SCD5 plasmid-containing strains, the 2× cell density was 0.02. […] For 96-well assays (FIGS. 1A and 1B), compound dilutions in DMSO were generated in 96 well plates and 1 μL was manually pipetted into 96 well clear bottom assay plates.
For experiments using a plasmid-borne copy of Ole1, SCD1, or SCD5 (FIGS. 3B, 6, and 7), media lacking uracil (SX-Ura, where X is glucose, raffinose, or galactose), was used for all steps of the compound profiling protocol to ensure its maintenance throughout the assay.
After yeast delivery, assay plates were incubated under humidified conditions at 30° C. for 24 to 40 h. ApoE4 rescue experiments were stopped at 24 h, aSyn experiments at 40 h, Ole1 at 24 h, and SCD1/SCD5 at 40 h. The growth of yeast was monitored by reading the ODsoo of each well using a microplate reader (Perkin Elmer EnVision™).

[2] = target: T2, SCD1 (Homo sapiens, UniProt O00767); assay: Growth inhibition of humanized yeast strain expressing SCD1 as sole desaturase; details: humanized yeast strain expressing SCD1
T2 construct: host or cells: S. cerevisiae ole1Δ strain (W303 pdr1Δ pdr3Δ background), plasmid pRS316 with TDH3 promoter and CYC1 terminator
T2 sequence (O00767 1-359): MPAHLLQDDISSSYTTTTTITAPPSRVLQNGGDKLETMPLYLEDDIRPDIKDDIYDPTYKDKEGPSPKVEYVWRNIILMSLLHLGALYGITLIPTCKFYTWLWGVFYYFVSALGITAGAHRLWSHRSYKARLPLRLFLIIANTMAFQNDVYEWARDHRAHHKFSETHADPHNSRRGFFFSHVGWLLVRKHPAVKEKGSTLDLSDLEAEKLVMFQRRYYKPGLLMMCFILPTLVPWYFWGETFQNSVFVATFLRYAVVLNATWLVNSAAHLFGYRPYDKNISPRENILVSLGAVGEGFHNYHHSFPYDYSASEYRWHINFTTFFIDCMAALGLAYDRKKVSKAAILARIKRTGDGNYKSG
Procedure, shortened: (§1)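 Yeast ole1Δ strain (W303 pdr1Δ pdr3Δ background) carrying plasmid-borne Ole1, SCD1 or SCD5 as sole desaturase was grown in uracil-lacking media, pre-cultured in raffinose for 6 h, then seeded in galactose medium with compound in DMSO. Growth was read as OD600 after 30° C. incubation: 24 h for Ole1, 40 h for SCD1/SCD5.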

[3] = target: T3, SCD5 (Homo sapiens, UniProt Q86SK9); assay: Growth inhibition of humanized yeast strain expressing SCD5 as sole desaturase; details: humanized yeast strain expressing SCD5
T3 construct: host or cells: S. cerevisiae ole1Δ strain (W303 pdr1Δ pdr3Δ background), plasmid pRS316 with TDH3 promoter and CYC1 terminator
T3 sequence (Q86SK9 1-330): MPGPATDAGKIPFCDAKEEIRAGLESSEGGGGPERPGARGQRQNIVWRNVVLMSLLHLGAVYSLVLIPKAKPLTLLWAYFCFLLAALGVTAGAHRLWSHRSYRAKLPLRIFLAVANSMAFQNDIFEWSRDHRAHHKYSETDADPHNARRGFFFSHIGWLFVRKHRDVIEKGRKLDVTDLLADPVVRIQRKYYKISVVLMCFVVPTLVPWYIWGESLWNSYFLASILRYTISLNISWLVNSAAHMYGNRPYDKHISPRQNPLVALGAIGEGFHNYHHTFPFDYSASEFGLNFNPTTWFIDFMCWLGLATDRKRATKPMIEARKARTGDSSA
Procedure, shortened: as §1

Compound | IC50 [1] [µM] | OLE1 % Max Inhibition [1] | IC50 [2] [µM] | SCD1 % Max Inhibition [2] | IC50 [3] [µM] | SCD5 % Max Inhibition [3]
COc1cc(OC)cc(-c2noc(C3CCN(C(=O)CNC(=O)c4ccccc4)CC3)n2)c1 [Compound 187] | > 45 | 97.42% | > 45 | 72.13% | > 45 | 2.91%
Cc1nn(C)c2cc(-c3noc(C4CCN(C(=O)C5CC(=O)N(c6ccc(F)cc6)C5)CC4)n3)ccc12 (stereo not drawn) [Compound 188] | > 45 | 4.70% | > 45 | 78.63% | > 45 | 4.51%
CC(C)(CO)n1ncc2ccc(-c3noc(C4CCN(C(=O)CNC(=O)c5ccccc5)CC4)n3)cc21 [Compound 189] | > 45 | 98.14% | > 45 | 88.10% | > 45 | 68.58%
COc1ccc(-c2noc(C3CCN(C(=O)[C@H](NC(=O)c4ccccc4)C4CC4)CC3)n2)cc1OC [Compound 190] | > 45 | 100.94% | > 45 | 83.53% | > 45 | 19.31%
Cc1nn(C)c2cc(-c3noc(C4CCN(C(=O)[C@H](NC(=O)c5ccccc5)C5CC5)CC4)n3)ccc12 [Compound 191] | > 45 | 89.31% | > 45 | 81.79% | > 45 | 6.72%
CCOC(=O)C(C)(C)n1cc2ccc(-c3noc(C4CCN(C(=O)C5CC(=O)N(c6ccccc6)C5)CC4)n3)cc2n1 (stereo not drawn) [Compound 193] | > 45 | 89.35% | > 45 | 80.72% | > 45 | 85.76%
CCOC(=O)C(C)(C)n1cc2ccc(-c3noc(C4CCN(C(=O)CNC(=O)c5ccccc5)CC4)n3)cc2n1 [Compound 194] | > 45 | 60.71% | > 45 | 74.07% | > 45 | 63.24%
Cc1nn(C)c2cc(-c3noc(C4CCN(C(=O)C5CC(=O)N(c6ccccn6)C5)CC4)n3)ccc12 (stereo not drawn) [Compound 195] | > 45 | 3.86% | > 45 | 75.08% | > 45 | 9.78%
CCOC(=O)C(C)(C)n1ncc2ccc(-c3noc(C4CCN(C(=O)C5CC(=O)N(c6ccccc6)C5)CC4)n3)cc21 (stereo not drawn) [Compound 196] | > 45 | 93.87% | > 45 | 86.58% | > 45 | 75.88%
Cc1nn(C)c2cc(-c3noc(C4CCN(C(=O)CNC(=O)c5cccnc5)CC4)n3)ccc12 [Compound 197] | > 45 | 4.80% | > 45 | 66.87% | > 45 | 61.44%
Cc1nn(C)c2cc(-c3noc(C4CCN(C(=O)CNC(=O)c5ccncc5)CC4)n3)ccc12 [Compound 198] | > 45 | 2.96% | > 45 | 71.25% | > 45 | 36.45%
CCOc1cc(-c2noc(C3CCN(C(=O)CNC(=O)c4ccccc4)CC3)n2)ccc1OC [Compound 199] | > 45 | 24.34% | > 45 | 27.85% | > 45 | 3.87%
Cc1nn(C)c2cc(-c3noc(C4CCN(C(=O)CN5Cc6ccccc6C5=O)CC4)n3)cnc12 [Compound 200] | > 45 | 2.69% | > 45 | 79.67% | 41.1 | 64.72%
CC(C)(CO)n1cc2ccc(-c3noc(C4CCN(C(=O)C5CC(=O)N(c6ccccc6)C5)CC4)n3)cc2n1 (stereo not drawn) [Compound 201] | > 45 | 85.29% | > 45 | 79.67% | 32.9 | 65.14%
CC(C)(CO)n1cc2ccc(-c3noc(C4CCN(C(=O)CNC(=O)c5ccccc5)CC4)n3)cc2n1 [Compound 202] | > 45 | 94.93% | > 45 | 74.09% | > 45 | 74.20%
CC(C)(CO)n1ncc2ccc(-c3noc(C4CCN(C(=O)C5CC(=O)N(c6ccccc6)C5)CC4)n3)cc21 (stereo not drawn) [Compound 203] | > 45 | 100.03% | > 45 | 84.83% | > 45 | 80.12%
CC(C)c1ccc(C(=O)N2CCC(c3nc(-c4ccc5cnn(C)c5c4)no3)CC2)cc1 [Compound 204] | > 45 | 79.30% and 50.38% | > 45 | 30.36% and 21.99% | > 45 | 0.25% and 2.95%
CC(C)c1cccc(C(=O)N2CCC(c3nc(-c4ccc5cnn(C)c5c4)no3)CC2)c1 [Compound 205] | > 45 | 94.02% | > 45 | 31.70% | > 45 | 1.01%
COc1ccc(N2CC(C(=O)N3CCC(c4nc(-c5ccc6c(C)nn(C)c6c5)no4)CC3)CC2=O)cc1 (stereo not drawn) [Compound 206] | > 45 | 5.25% | > 45 | 93.66% | > 45 | 19.89%
